The text below walks through data of ChEMBL document CHEMBL2046380, “Synthesis and structure-activity relationship of disubstituted benzamides as a novel class of antimalarial agents” (Bioorg Med Chem Lett, 2012).

SMILES strings stand for the structures.

The EC50 is the midpoint of the concentration-response curve. Low values mean greater potency, high ones weaker potency.

Test [1] concerns Raji. In words: Cytotoxicity against human Raji cells after 72 hrs by […] CellTiterGlo reagent assay. Format: cell-based. Background: The colour change of resazurin is a common sign of viable cells or microbes.
The test system of test [2] is Plasmodium falciparum. Briefly: Antimalarial activity against chloroquine-sensitive Plasmodium falciparum 3D7 incubated for 72 hrs by DNA staining based MAR3D7 growth inhibition assay. Format: functional, organism-based. The settings on record: 3D7, 72 h.
Test [3] relates to Plasmodium falciparum. In words: Antimalarial activity against […] incubated for 72 hrs by DNA staining based MARK1 growth inhibition assay. Format: functional, organism-based.
Test [4] relates to BJ. Briefly: Cytotoxicity against human BJ cells after 72 hrs by […] CellTiterGlo reagent assay. Format: cell-based.
Test [5] has as its system HEK293. In words: Cytotoxicity against human HEK293 cells after 72 hrs by […] CellTiterGlo reagent assay. It is filed as cell-based. The settings on record: HEK293, 72 h.
Test [6] concerns HepG2. Briefly: Cytotoxicity against human HepG2 cells after 72 hrs by […] CellTiterGlo reagent assay. The settings on record: HepG2, 72 h. Format: cell-based.

Consider `CCOC(=O)CCCCCOc1cccc(CN(C(=O)c2ccc(-c3cccc(-c4nnc(C)o4)c3)cc2)C(C)C)c1`, for which the EC50 is > 26 µM in test [1]; > 15 µM in test [2]; > 15 µM in test [3]; > 26 µM in test [4]; > 26 µM in test [5]; > 26 µM in test [6].

As to `CCOC(=O)CCCCCOc1cccc(CN(C(=O)c2ccc(-c3cccc(OCC(C)C)c3)cc2)C(C)C)c1`, the EC50 was > 26 µM in test [1]; > 15 µM in test [2]; > 15 µM in test [3]; > 26 µM in test [4]; > 26 µM in test [5]; > 26 µM in test [6].

Regarding `Cc1nnc(-c2cccc(-c3ccc(C(=O)N(Cc4cccc(OCCCCCC(=O)O)c4)C(C)C)cc3)c2)o1`, the EC50 in test [1] is > 26 µM; in test [2] it was > 15 µM; in test [3], > 15 µM; in test [4], > 26 µM; in test [5], > 26 µM; in test [6], > 26 µM.

With `CCOC(=O)CCCCCOc1cccc(C=O)c1`, the EC50 in test [1] is > 26 µM; in test [2] it was > 15 µM; in test [3], > 15 µM; in test [4], > 26 µM; in test [5], > 26 µM; in test [6] it was > 26 µM.

As to `C=CCCC1=NCC(O[Si](C)(C)C(C)(C)C)c2cc(OC)c(OC)cc21` (configuration not stated), the EC50 is > 13 µM in test [1]; 2.95 µM in test [2]; 3.06 µM in test [3]; > 13 µM in test [4]; > 13 µM in test [5]; > 13 µM in test [6].

Turning to `C[C@@H](NC(=O)c1ccc(-c2ccc3c(c2)OCO3)cc1)c1ccccc1`, the EC50 in test [1] was > 26 µM; in test [2], > 15 µM; in test [3] it was > 15 µM; in test [4] it was > 26 µM; in test [5], > 26 µM; in test [6], > 26 µM.

`COc1cc2c(cc1OC)C(C)=NCC2`: the EC50 is > 13 µM in test [1]; > 7.51 µM in test [2]; > 7.51 µM in test [3]; > 13 µM in test [4]; > 13 µM in test [5]; > 13 µM in test [6].

Turning to `CC(C)N(Cc1ccccc1OCCCCCC(=O)O)C(=O)c1ccc(-c2ccc3c(c2)OCO3)cc1`, the concentration giving a half-maximal response (EC50) in test [1] was > 26 µM; in test [2], > 15 µM; in test [3] it was > 15 µM; in test [4], > 26 µM; in test [5], > 26 µM; in test [6] it was > 26 µM.

For `CC(C)Oc1cccc(-c2ccc(C(=O)N(Cc3cccc(OCCCCCC(=O)O)c3)C(C)C)cc2)c1`, the EC50 in test [1] was > 26 µM; in test [2], > 15 µM; in test [3] it was > 15 µM; in test [4], > 26 µM; in test [5], > 26 µM; in test [6] it was > 26 µM.

As to `CC(C)N(Cc1cccc(OCCCCCC(=O)O)c1)C(=O)c1ccc(-c2ccc3cc[nH]c3c2)cc1`, the EC50 in test [1] is > 26 µM; in test [2] it was > 15 µM; in test [3], > 1.5 µM; in test [4], > 26 µM; in test [5], > 26 µM; in test [6], > 26 µM.

Regarding `CC(C)N(Cc1cccc(OCCCCCC(=O)O)c1)C(=O)c1ccc(-c2ccc(Cl)c(Cl)c2)cc1`, the EC50 in test [1] is > 26 µM; in test [2], > 15 µM; in test [3] it was 0.0175 µM; in test [4], > 26 µM; in test [5], > 26 µM; in test [6], > 26 µM.

For the compound `CC(=O)Nc1cccc(-c2ccc(C(=O)N(Cc3cccc(OCCCCCC(=O)O)c3)C(C)C)cc2)c1`, the EC50 in test [1] was > 26 µM; in test [2], > 15 µM; in test [3], > 15 µM; in test [4], > 26 µM; in test [5], > 26 µM; in test [6], > 26 µM.

As for `CC(C)N(Cc1cccc(OCCCCCC(=O)O)c1)C(=O)c1ccc(-c2cccc(OCc3ccccc3)c2)cc1`, the EC50 was > 26 µM in test [1]; > 15 µM in test [2]; > 15 µM in test [3]; > 26 µM in test [4]; > 26 µM in test [5]; > 26 µM in test [6].

On to `CC(C)N(Cc1cccc(OCCCCCC(=O)O)c1)C(=O)c1ccc(-c2ccc3c(c2)OCCO3)cc1`, for which the EC50 is > 21.9 µM in test [1]; > 12.1 µM in test [2]; > 12.1 µM in test [3]; > 21.9 µM in test [4]; > 21.9 µM in test [5]; > 21.9 µM in test [6].

As for `CCCN(Cc1ccc(OCCCCCC(=O)OCC)cc1)C(=O)c1ccc(-c2ccc3c(c2)OCO3)cc1`, the EC50 in test [1] was > 26 µM; in test [2], > 15 µM; in test [3], > 15 µM; in test [4] it was > 26 µM; in test [5] it was > 26 µM; in test [6], > 26 µM.

In the case of `COc1cc2c(cc1OC)C1(CC=CCC1)N(C(C)=O)CC2` (configuration not stated), the EC50 was > 13 µM in test [1]; > 7.51 µM in test [2]; > 7.51 µM in test [3]; > 13 µM in test [4]; > 13 µM in test [5]; > 13 µM in test [6].

As to `CC(=O)c1cccc(-c2ccc(C(=O)N(Cc3cccc(OCCCCCC(=O)O)c3)C(C)C)cc2)c1`, the EC50 in test [1] was > 26 µM; in test [2], < 0.0004 µM; in test [3], > 15 µM; in test [4] it was > 26 µM; in test [5] it was > 26 µM; in test [6], > 26 µM.

Regarding `CCOC(=O)CC(=O)NCCc1ccc(OC)c(OC)c1`, the EC50 was > 13 µM in test [1]; > 7.51 µM in test [2]; > 7.51 µM in test [3]; > 13 µM in test [4]; > 13 µM in test [5]; > 13 µM in test [6].

Consider `CCOC(=O)CCCCCOc1cccc(CN(C(=O)c2ccc(-c3ccc4cc[nH]c4c3)cc2)C(C)C)c1`, for which the EC50 in test [1] was > 26 µM; in test [2], > 15 µM; in test [3], > 15 µM; in test [4], > 26 µM; in test [5], > 26 µM; in test [6], > 26 µM.

Turning to `C#CCCC(=O)NCCc1ccc(OC)c(OC)c1`, the EC50 in test [1] is > 13 µM; in test [2], > 7.51 µM; in test [3], > 7.51 µM; in test [4], > 13 µM; in test [5], > 13 µM; in test [6], > 13 µM.

As for `COC(=O)CCCC1=NCCc2cc(OC)c(OC)cc21`, the EC50 was > 13 µM in test [1]; > 7.51 µM in test [2]; > 7.51 µM in test [3]; > 13 µM in test [4]; > 13 µM in test [5]; > 13 µM in test [6].

Turning to `CCCNCc1ccc(OCCCCCC(=O)OCC)cc1`, the EC50 is > 26 µM in test [1]; > 15 µM in test [2]; > 15 µM in test [3]; > 26 µM in test [4]; > 26 µM in test [5]; > 26 µM in test [6].

With `COc1cc2c(cc1OC)C(CC1(C)OCCO1)=NCC2`, the EC50 in test [1] was > 13 µM; in test [2], > 7.51 µM; in test [3], > 7.51 µM; in test [4], > 13 µM; in test [5], > 13 µM; in test [6], > 13 µM.

`CCOC(=O)CCCCCOc1cccc(CNC(C)C)c1`: the EC50 was > 26 µM in test [1]; > 15 µM in test [2]; > 15 µM in test [3]; > 26 µM in test [4]; > 26 µM in test [5]; > 26 µM in test [6].

Consider `CC(C)N(Cc1cccc(OCCCCCC(=O)O)c1)C(=O)c1ccc(-c2ccc3c(c2)OCO3)cc1`, for which the EC50 was > 26 µM in test [1]; 0.0604 µM in test [2]; 0.438 µM in test [3]; > 26 µM in test [4]; > 26 µM in test [5]; > 26 µM in test [6].

As to `COc1cc(OC)cc(-c2ccc(C(=O)N(Cc3cccc(OCCCCCC(=O)O)c3)C(C)C)cc2)c1`, the EC50 in test [1] is > 26 µM; in test [2], > 15 µM; in test [3] it was > 15 µM; in test [4] it was > 26 µM; in test [5], > 26 µM; in test [6], > 26 µM.

Consider `COc1ccc(F)c(-c2ccc(C(=O)N(Cc3cccc(OCCCCCC(=O)O)c3)C(C)C)cc2)c1`, for which the EC50 in test [1] was > 26 µM; in test [2] it was > 15 µM; in test [3], > 15 µM; in test [4], > 26 µM; in test [5], > 26 µM; in test [6] it was > 26 µM.

As for `CCOC(=O)CCCCCOc1cccc(CN(C(=O)c2ccc(-c3ccc4[nH]ccc4c3)cc2)C(C)C)c1`, the EC50 in test [1] was > 26 µM; in test [2], > 15 µM; in test [3] it was > 15 µM; in test [4] it was > 26 µM; in test [5], > 26 µM; in test [6] it was > 26 µM.

For `COc1cc(F)cc(-c2ccc(C(=O)N(Cc3cccc(OCCCCCC(=O)O)c3)C(C)C)cc2)c1`, the EC50 in test [1] is > 26 µM; in test [2], > 15 µM; in test [3] it was > 15 µM; in test [4], > 26 µM; in test [5] it was > 26 µM; in test [6] it was > 26 µM.

`CCOC(=O)CCCCCOc1cccc(CN(C(=O)c2ccc(-c3cnc(OC)nc3OC)cc2)C(C)C)c1`: the concentration giving a half-maximal response (EC50) in test [1] was > 26 µM; in test [2], > 15 µM; in test [3], > 15 µM; in test [4] it was > 26 µM; in test [5] it was > 26 µM; in test [6], > 26 µM.

As to `CCOC(=O)CCCCCOc1cccc(CN(C(=O)c2ccc(-c3cccc(CC#N)c3)cc2)C(C)C)c1`, the EC50 in test [1] is > 26 µM; in test [2] it was > 15 µM; in test [3] it was > 15 µM; in test [4], > 26 µM; in test [5] it was > 26 µM; in test [6], > 26 µM.

As to `CCOC(=O)CCCCCOc1cccc(CN(C(=O)c2ccc(-c3cc4ccccc4n3S(=O)(=O)c3ccccc3)cc2)C(C)C)c1`, the EC50 in test [1] was > 26 µM; in test [2], > 15 µM; in test [3], > 15 µM; in test [4] it was > 26 µM; in test [5], > 26 µM; in test [6], > 26 µM.
